Measured values: ChEMBL document CHEMBL1641528, “Reverse type I inhibitor of Mycobacterium tuberculosis CYP125A1” (Bioorg Med Chem Lett, 2011)

Molecular target: T1, Steroid C26-monooxygenase (Mycobacterium tuberculosis, UniProt P9WPP1)
T1 sequence (P9WPP1 whole entry): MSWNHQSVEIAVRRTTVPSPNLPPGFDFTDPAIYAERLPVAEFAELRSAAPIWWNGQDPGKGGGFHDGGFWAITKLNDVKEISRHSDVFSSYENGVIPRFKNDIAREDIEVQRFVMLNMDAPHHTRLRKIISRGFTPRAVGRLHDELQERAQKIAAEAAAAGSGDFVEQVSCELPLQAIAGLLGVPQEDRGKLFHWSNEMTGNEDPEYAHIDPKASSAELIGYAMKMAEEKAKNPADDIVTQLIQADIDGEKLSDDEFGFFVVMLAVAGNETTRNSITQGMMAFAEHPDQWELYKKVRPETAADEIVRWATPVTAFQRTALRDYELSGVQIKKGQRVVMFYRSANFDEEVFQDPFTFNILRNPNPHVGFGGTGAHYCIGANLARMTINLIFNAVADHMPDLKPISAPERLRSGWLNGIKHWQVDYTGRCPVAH
Experiment: Inhibition of Mycobacterium tuberculosis H37Rv CYP125A1 expressed in Escherichia coli at 200 uM

CC1CCC(C(=O)NC(Cc2c[nH]c3ccccc23)C(=O)Nc2ccncc2)CC1 (stereo unspecified)
inhibition at 200 µM: 30%
